# According to publication PMC10133546, “Simultaneous determination of multiple components in rat plasma by UHPLC-sMRM for pharmacokinetic studies after oral administration of Qingjin Yiqi Granules” (Frontiers in Pharmacology, 2023):
# Read-outs that look alike come from different tables or passages of the source.
# Tests used:
# [1] = Pharmacokinetic study in rat plasma after oral administration of QJYQ (UHPLC-sMRM); assay type: in vivo, Sprague-Dawley rats
# [2] = Stability of analytes in rat plasma (auto-sampler, freeze-thaw, room temperature, long-term); conditions: for Autosampler for 24 h Accuracy (%): autosampler 24 h; for Room temperature for 24 h Accuracy (%): room temperature 24 h; for −80°C for 1month Accuracy (%): −80°C 1 month; for Freeze thaw cycles Accuracy (%): three freeze-thaw cycles
# [3] = parameters: method as in Wang et al., 2008; Feng et al., 2017; conditions: alkaline and light and heat conditions; ref Wang et al., 2008; Feng et al., 2017; cited from earlier work
# [4] = Stability of the working solution (4°C for 1 month); assay type: physicochemical
# Caco-2 cell = test system: Caco-2 cell; parameters: method as in Cai et al., 2016; conditions: compared with baicalin; ref Cai et al., 2016; cited from earlier work
compound,measurement,setting,value
O=C(O)[C@H]1O[C@@H](Oc2cc3oc(-c4ccccc4)cc(=O)c3c(O)c2O)[C@H](O)[C@@H](O)[C@@H]1O [baicalin],Tmax,"[1]; male, Sprague-Dawley, rat, plasma, po, 3.15 g/kg, rat plasma, oral QJYQ 3.15 g/kg, n = 8, mean ± SD, read-out: Tmax",7.22 ± 1.41 h
same,MRT,"[1]; male, Sprague-Dawley, rat plasma, oral QJYQ 3.15 g/kg, MRT type not specified, read-out: MRT",> 8 h
same,half-life,"[1]; male, Sprague-Dawley, rat plasma, oral QJYQ 3.15 g/kg, n = 8, mean ± SD",3.09 ± 0.87 h
same,AUC(0-t),"[1]; male, Sprague-Dawley, rat plasma, oral QJYQ 3.15 g/kg, n = 8, mean ± SD, read-out: AUC(0-t)",49300 ± 24900 ng·h/mL
same,AUC(0-inf),"[1]; male, Sprague-Dawley, rat plasma, oral QJYQ 3.15 g/kg, n = 8, mean ± SD, read-out: AUC(0-∞)",49700 ± 24900 ng·h/mL
same,Cmax,"[1]; male, Sprague-Dawley, rat plasma, oral QJYQ 3.15 g/kg, n = 8, mean ± SD, read-out: Cmax",4520 ± 3140 ng/mL
same,MRT inf,"[1]; male, Sprague-Dawley, rat plasma, oral QJYQ 3.15 g/kg, n = 8, mean ± SD, read-out: MRT (0-∞)",8.62 ± 0.53 h
same,MRT last,"[1]; male, Sprague-Dawley, rat plasma, oral QJYQ 3.15 g/kg, n = 8, mean ± SD, read-out: MRT(0-t)",8.45 ± 0.58 h
same,Autosampler for 24 h Accuracy (%),[2]; 15.6 ng/mL,111.0%
same,Room temperature for 24 h Accuracy (%),[2]; 15.6 ng/mL,98.5%
same,−80°C for 1month Accuracy (%),[2]; 15.6 ng/mL,98.9%
same,Autosampler for 24 h Accuracy (%),[2]; 125 ng/mL,113.0%
same,Room temperature for 24 h Accuracy (%),[2]; 125 ng/mL,104.0%
same,Freeze thaw cycles Accuracy (%),[2]; 125 ng/mL,89.3%
same,−80°C for 1month Accuracy (%),[2]; 125 ng/mL,98.1%
same,Autosampler for 24 h Accuracy (%),[2]; 1000 ng/mL,94.2%
same,Room temperature for 24 h Accuracy (%),[2]; 1000 ng/mL,96.8%
same,Freeze thaw cycles Accuracy (%),[2]; 1000 ng/mL,89.7%
same,−80°C for 1month Accuracy (%),[2]; 1000 ng/mL,91.4%
same,Autosampler for 24 h Accuracy (%),[2]; 5000 ng/mL,86.8%
same,Room temperature for 24 h Accuracy (%),[2]; 5000 ng/mL,89.0%
same,Freeze thaw cycles Accuracy (%),[2]; 5000 ng/mL,111.0%
same,−80°C for 1month Accuracy (%),[2]; 5000 ng/mL,90.3%
same,stability,[3],not stable
same,Working solution Accuracy (%),[4]; 15.6 ng/mL,83.1%
same,Working solution Accuracy (%),[4]; 125 ng/mL,105.0%
same,Working solution Accuracy (%),[4]; 1000 ng/mL,93.9%
same,Working solution Accuracy (%),[4]; 5000 ng/mL,87.7%
COc1c(O[C@@H]2O[C@H](C(=O)O)[C@@H](O)[C@H](O)[C@H]2O)cc(O)c2c(=O)cc(-c3ccccc3)oc12 [wogonoside],AUC(0-t),"[1]; rat, in vivo, po, 3.15 g/kg",73080.32 ± 34091.07 ng·h/mL
same,AUC(0-∞),"[1]; rat, in vivo, po, 3.15 g/kg",73104.07 ± 34093.59 ng·h/mL
same,Cmax,"[1]; rat, in vivo, po, 3.15 g/kg",5052.10 ± 3277.54 ng/mL
same,MRT,"[1]; rat, in vivo, po, 3.15 g/kg",greater than 8 h
same,MRT (0-∞),"[1]; rat, in vivo, po, 3.15 g/kg",8.40 ± 0.83 h
same,MRT(0-t),"[1]; rat, in vivo, po, 3.15 g/kg",8.39 ± 0.83 h
same,T1/2,"[1]; rat, in vivo, po, 3.15 g/kg",2.67 ± 0.24 h
same,Tmax,"[1]; rat, in vivo, po, 3.15 g/kg",5.89 ± 3.26 h
same,Autosampler for 24 h Accuracy (%),[2]; 62.5 ng/mL,89.7%
same,Room temperature for 24 h Accuracy (%),[2]; 62.5 ng/mL,83.2%
same,Freeze thaw cycles Accuracy (%),[2]; 62.5 ng/mL,84.2%
same,−80°C for 1month Accuracy (%),[2]; 62.5 ng/mL,83.7%
same,Autosampler for 24 h Accuracy (%),[2]; 500 ng/mL,105.0%
same,Room temperature for 24 h Accuracy (%),[2]; 500 ng/mL,93.4%
same,−80°C for 1month Accuracy (%),[2]; 500 ng/mL,113.0%
same,Autosampler for 24 h Accuracy (%),[2]; 1000 ng/mL,98.7%
same,Room temperature for 24 h Accuracy (%),[2]; 1000 ng/mL,85.6%
same,Freeze thaw cycles Accuracy (%),[2]; 1000 ng/mL,95.1%
same,−80°C for 1month Accuracy (%),[2]; 1000 ng/mL,98.0%
same,Autosampler for 24 h Accuracy (%),[2]; 5000 ng/mL,97.5%
same,Room temperature for 24 h Accuracy (%),[2]; 5000 ng/mL,111.0%
same,Freeze thaw cycles Accuracy (%),[2]; 5000 ng/mL,90.9%
same,−80°C for 1month Accuracy (%),[2]; 5000 ng/mL,89.1%
same,stability,[3],not stable
same,Working solution Accuracy (%),[4]; 62.5 ng/mL,91.0%
same,Working solution Accuracy (%),[4]; 500 ng/mL,113.0%
same,Working solution Accuracy (%),[4]; 1000 ng/mL,105.0%
same,Working solution Accuracy (%),[4]; 5000 ng/mL,108.0%
same,Caco-2 cell membrane permeability,Caco-2 cell,greater than baicalin
